{
  "source": "patent US10993937B2",
  "about": "“Composition, for preventing or treating dry eye syndrome, containing polyethylene glycol and flavonoid nanocomposite as active ingredient” (INJE UNIVERSITY INDUSTRY-ACADEMIC COOPERATION FOUNDATION, priority 2017, dated 2021)",
  "key": {"[1]": {"test_system": "NOD.B10.H2^b mouse", "experiment": "Tear production analysis (phenol red-impregnated cotton threads) in mouse model of dry eye syndrome", "type": "in vivo", "conditions": "for amount of tears: 1% eye drops 5 μL five times a day, mean±SD", "description": "(§1) Eighty three NOD.B10.H2^b mice (6 weeks old) in total were obtained from the Jackson Laboratory (Bar Harbor, Me., USA) and performed an acclimatization process for 6 to 10 weeks. Mice were kept in a semi-pathogen free (SPF) facility, and feed and water were provided as free feed.\n(§2) Six mice were used for histopathological analysis as a baseline. Seventy seven mice were injected subcutaneously four times daily for 10 days with 500 μg/200 μL of scopolamine hydrobromide (Sigma-Aldrich) which is a muscarinic receptor blocker. At this time, the mice were exposed to desiccation stress (DS) for 10 days, including air ventilation by the fan, with an average ambient humidity of 40% or less for 18 hours daily. On day 10 after scopolamine hydrobromide injection and dryness stress exposure, tear production was measured and a photograph of the cornea was taken.\nOn day 10 of DS, 11 mice were used for histopathological analysis. Sixty six mice were randomly divided into six groups: vehicle (n=11, saline of 5 μL), catechin group (n=11, 1% catechin of 5 μL), CP1 group (n=11, 1% CP1 5 μL), CP5 group (n=11, 1% CP5 5 μL), CP10 group (n=11, 1% CP10 5 μL) and PEG group (n=11, 1% PEG 5 μL). All treatments were performed by injecting five times a day and the amount of tear, corneal disorder and fluorescein scores were measured at baseline, day 10 of DS, and day 3, 5, 7, and 10 after treatment. Hematoxylin and eosin (H&E) and PAS (periodic acid Schiff) staining were performed on the cornea and conjunctiva, respectively. In addition, expression of inflammatory factors associated with immunohistochemical staining in the lacrimal gland was evaluated.\nThe amount of tears was measured with reference to a previously reported paper (Eye Contact Lens. 2006; 32(6): 272-276). […] The amount of tears was calculated by comparison with a standard curve expressed using a basic solution (1.5 L of 0.9% saline and 5 mL of 5 N sodium hydroxide (NaOH))."}, "[2]": {"test_system": "NOD.B10.H2^b mouse", "experiment": "Analysis of corneal irregularities (white ring, corneal disorder score)", "type": "in vivo", "conditions": "for corneal disorder score: 5-point scale", "description": "as §1, §2\n(§3) On day 10 of DS, 11 mice were used for histopathological analysis. […] All treatments were performed by injecting five times a day and the amount of tear, corneal disorder and fluorescein scores were measured at baseline, day 10 of DS, and day 3, 5, 7, and 10 after treatment. […] In addition, expression of inflammatory factors associated with immunohistochemical staining in the lacrimal gland was evaluated.\nCorneal abnormality was measured with reference to a previously reported paper (Invest Ophthalmol Vis Sci. 2006; 47:2847-2856). […] Corneal smoothness was assessed by grading the irregularity of the corneal epithelial cells reflected in the white ring of the digital image. The reflected ring was divided into quarters and the corneal disorder score was calculated using the 5-point scale based on the number of distorted branches in the reflected ring: 0, no distortion; 1, a quarter of distortion; 2, two-quarters of distortion; 3, three-quarters of distortion; 4, four-quarters of distortion; 5, severe distortion."}, "[3]": {"test_system": "TNF-α", "experiment": "Immunohistochemistry of lacrimal gland sections, TNF-α expression", "type": "in vivo, mouse", "conditions": "immunostaining; dryness stress 2.04 times of control", "description": "as §1, §2\nas §3, with “evaluated. […]” for “evaluated.”"}, "[4]": {"test_system": "IL-6", "experiment": "Immunohistochemistry of lacrimal gland sections, IL-6 expression", "type": "in vivo, mouse", "conditions": "immunostaining; dryness stress 4.02 times of control", "description": "as §1, §2\nas §3, with “evaluated. […]” for “evaluated.”"}, "[5]": {"test_system": "MMP-9", "experiment": "Immunohistochemistry of lacrimal gland sections, MMP-9 expression", "type": "in vivo, mouse", "conditions": "compared with the day 10 of DS", "description": "as §1, §2\nas §3, with “evaluated. […]” for “evaluated.”"}, "[6]": {"test_system": "VCAM-1", "experiment": "Immunohistochemistry of lacrimal gland sections, VCAM-1 expression", "type": "in vivo, mouse", "conditions": "versus day 10 of DS and the vehicle-treated group", "description": "as §1, §2\nas §3, with “evaluated. […]” for “evaluated.”"}, "[7]": {"test_system": "NOD.B10.H2^b mouse", "experiment": "Corneal fluorescence staining assay (NEI grading)", "type": "in vivo", "description": "as §1\nas §2, with “At this time, the mice were exposed to desiccation stress (DS) for 10 days, including air ventilation by the fan, with an average ambient humidity of 40% or less for 18 hours daily.” left out\nas §3\nFluorescence staining of the cornea was performed with reference to a previously reported paper (CLAO J. 1995; 21: 221-232). […] Punctate staining was assessed using a standard NEI (national eye institute) grading system with scores of 0 to 3 on each of the five areas of the cornea."}, "[8]": {"test_system": "IL-17", "experiment": "Immunohistochemistry of lacrimal gland sections, IL-17 expression", "type": "in vivo, mouse", "conditions": "immunostaining; dryness stress 15.35 times of control", "description": "as §1, §2\nas §3, with “evaluated. […]” for “evaluated.”"}, "[9]": {"test_system": "IL-1β", "experiment": "Immunohistochemistry of lacrimal gland sections, IL-1β expression", "type": "in vivo, mouse", "conditions": "immunostaining; dryness stress 3.55 times of control", "description": "as §1, §2\nas §3, with “evaluated. […]” for “evaluated.”"}, "[10]": {"test_system": "NOD.B10.H2^b mouse", "experiment": "Density of conjunctival goblet cells (PAS staining)", "type": "in vivo", "conditions": "after treatment; control 12.86±0.76, dryness stress 6.19±0.16", "description": "as §1, §2\nas §3, with “evaluated. […]” for “evaluated.”"}, "[11]": {"test_system": "ICAM-1", "experiment": "Immunohistochemistry of lacrimal gland sections, ICAM-1 expression", "type": "in vivo, mouse", "conditions": "versus day 10 of DS and the vehicle-treated group", "description": "as §1, §2\nas §3, with “evaluated. […]” for “evaluated.”"}},
  "data": [
    {"substance": "catechin", "values": [
      {"measurement": "amount of tears", "setting": "[1]; after 3 days of treatment", "value": "0.08 ± 0.03", "unit": "µL"},
      {"measurement": "amount of tears", "setting": "[1]; after 5 days of treatment", "value": "0.13 ± 0.01", "unit": "µL"},
      {"measurement": "days of treatment after which tear production recovered to the baseline level", "setting": "[1]; baseline 0.16±0.02 μL", "value": 5, "unit": "days"},
      {"measurement": "day after treatment on which white rings on the corneal surface were observed", "setting": "[2]; FIG. 2A, microscopic image", "value": 10, "unit": "days"},
      {"measurement": "corneal disorder score", "setting": "[2]; day 7 after treatment, vehicle 3.63±0.48", "value": "2.88±0.48"},
      {"measurement": "corneal disorder score", "setting": "[2]; day 10 after treatment", "value": "2.38±0.47"},
      {"measurement": "expression of TNF-α in the lacrimal gland", "setting": "[3]", "value": "no statistically significant difference with day 10 of DS"},
      {"measurement": "expression of IL-6 in the lacrimal gland", "setting": "[4]", "value": "no statistically significant difference with day 10 of DS"},
      {"measurement": "expression of MMP-9, effect in words", "setting": "[5]", "value": "significantly decreased the MMP-9 expression but did not recover to the control level"},
      {"measurement": "expression of VCAM-1, effect in words", "setting": "[6]", "value": "did not show statistically significant difference"},
      {"measurement": "corneal fluorescence staining score", "setting": "[7]; day 7 after treatment, vehicle 10.00±1.00", "value": "6.67±0.58"},
      {"measurement": "corneal fluorescence staining score", "setting": "[7]; day 10 after treatment", "value": "3.67±0.58"},
      {"measurement": "IL-17 expression in the lacrimal gland", "setting": "[8]", "value": "significantly decreased IL-17 expression"},
      {"measurement": "expression of IL-1β in the lacrimal gland", "setting": "[9]", "value": "no statistically significant difference with day 10 of DS"},
      {"measurement": "number of conjunctival goblet cells", "setting": "[10]", "value": "9.71±1.25 /0.1 mm^2"},
      {"measurement": "expression of ICAM-1, effect in words", "setting": "[11]", "value": "did not show statistically significant difference"}
    ]}
  ]
}
